The supplement of paper PMC11208160

Assay: recombinant barcode read abundance after kanamycin selection (control-corrected) (log10(CPM+1)); higher = more efficient recombination; sequences stand for … in AGTGCAGAGAAAATCGGCCAGTTTTCTCTGCCTGCAGTCCGCATGCCGT…ATTTATGCAGCGGACTGCCTTTCTCCCAAAGTGATAAACCGGACAGTATCATGGACCGGTTTTCCCGGTAATCCGTATTTGCAAGGTTGGTTTCACT; site = the 11-nt target
Description: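 Same pooled E. coli target screen (IS621 bridge recombinase, kanamycin selection, control-corrected CPM, mean of 2 biological replicates). Here the two core-binding nucleotides of the LTG and RTG of the bridge RNA target-binding loop are mutated. Target and donor CT cores are held constant, and the other 9 guide positions match the target. The target is read from the library oligo sequence. Molecule = full bridge RNA written as DNA: nt 1-80 from the library oligo, rest WT scaffold.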

Row | Sequence | recombinant barcode read abundance (log10)
1 | AAACATGCTTGGGTTCTAACCTGTTGCCTCT [AAACATGCTAG_LTGcore_CT_RTGcore_AG] (site AAACATGCTAG) (LTG core: CT, RTG core: AG) | 0.435
2 | AAACATGCTTGGGTTCTAACCTGTTGCCTGT [AAACATGCTAG_LTGcore_CT_RTGcore_AC] (site AAACATGCTAG) (LTG core: CT, RTG core: AC) | 1.55
3 | AAACATGCTTGGGTTCTAACCTGTTGCCTTC [AAACATGCTAG_LTGcore_CT_RTGcore_GA] (site AAACATGCTAG) (LTG core: CT, RTG core: GA) | 0.572
4 | AAACATGCTTGGGTTCTAACCTGTTGCCTTG [AAACATGCTAG_LTGcore_CT_RTGcore_CA] (site AAACATGCTAG) (LTG core: CT, RTG core: CA) | 1.17
5 | AAACATGGATGGGTTCTAACCTGTTGCCTTC [AAACATGCTAG_LTGcore_GA_RTGcore_GA] (site AAACATGCTAG) (LTG core: GA, RTG core: GA) | 0.0557
6 | AAACATGGTTGGGTTCTAACCTGTTGCCTAG [AAACATGCTAG_LTGcore_GT_RTGcore_CT] (site AAACATGCTAG) (LTG core: GT, RTG core: CT) | 0.108
7 | AAACATGTTTGGGTTCTAACCTGTTGCCTAG [AAACATGCTAG_LTGcore_TT_RTGcore_CT] (site AAACATGCTAG) (LTG core: TT, RTG core: CT) | 0.0409
8 | ACGGGACAATGGGTTCTAACCTGTTGCAGAG [ACGGGACCTCT_LTGcore_AA_RTGcore_CT] (site ACGGGACCTCT) (LTG core: AA, RTG core: CT) | 0.0324
9 | ACGGGACAATGGGTTCTAACCTGTTGCAGTT [ACGGGACCTCT_LTGcore_AA_RTGcore_AA] (site ACGGGACCTCT) (LTG core: AA, RTG core: AA) | 0.298
10 | ACGGGACAGTGGGTTCTAACCTGTTGCAGCT [ACGGGACCTCT_LTGcore_AG_RTGcore_AG] (site ACGGGACCTCT) (LTG core: AG, RTG core: AG) | 0.237
11 | ACGGGACCCTGGGTTCTAACCTGTTGCAGGG [ACGGGACCTCT_LTGcore_CC_RTGcore_CC] (site ACGGGACCTCT) (LTG core: CC, RTG core: CC) | 1.21
12 | ACGGGACCTTGGGTTCTAACCTGTTGCAGAC [ACGGGACCTCT_LTGcore_CT_RTGcore_GT] (site ACGGGACCTCT) (LTG core: CT, RTG core: GT) | 0.9
13 | ACGGGACCTTGGGTTCTAACCTGTTGCAGAT [ACGGGACCTCT_LTGcore_CT_RTGcore_AT] (site ACGGGACCTCT) (LTG core: CT, RTG core: AT) | 1.4
14 | ACGGGACCTTGGGTTCTAACCTGTTGCAGGA [ACGGGACCTCT_LTGcore_CT_RTGcore_TC] (site ACGGGACCTCT) (LTG core: CT, RTG core: TC) | 0.528
15 | ACGGGACGATGGGTTCTAACCTGTTGCAGAG [ACGGGACCTCT_LTGcore_GA_RTGcore_CT] (site ACGGGACCTCT) (LTG core: GA, RTG core: CT) | 0.81
16 | ACGGGACGCTGGGTTCTAACCTGTTGCAGAG [ACGGGACCTCT_LTGcore_GC_RTGcore_CT] (site ACGGGACCTCT) (LTG core: GC, RTG core: CT) | 0.257
17 | ACGGGACGGTGGGTTCTAACCTGTTGCAGAG [ACGGGACCTCT_LTGcore_GG_RTGcore_CT] (site ACGGGACCTCT) (LTG core: GG, RTG core: CT) | 0.14
18 | ACGGGACTGTGGGTTCTAACCTGTTGCAGAG [ACGGGACCTCT_LTGcore_TG_RTGcore_CT] (site ACGGGACCTCT) (LTG core: TG, RTG core: CT) | 0.397
19 | ACGGGACTGTGGGTTCTAACCTGTTGCAGCA [ACGGGACCTCT_LTGcore_TG_RTGcore_TG] (site ACGGGACCTCT) (LTG core: TG, RTG core: TG) | 0.179
20 | ACGGGACTTTGGGTTCTAACCTGTTGCAGAA [ACGGGACCTCT_LTGcore_TT_RTGcore_TT] (site ACGGGACCTCT) (LTG core: TT, RTG core: TT) | 0.0398
21 | ACGGGACTTTGGGTTCTAACCTGTTGCAGAG [ACGGGACCTCT_LTGcore_TT_RTGcore_CT] (site ACGGGACCTCT) (LTG core: TT, RTG core: CT) | 0.0241
22 | AGGAGGTAATGGGTTCTAACCTGTTGCCTAG [AGGAGGTCTAG_LTGcore_AA_RTGcore_CT] (site AGGAGGTCTAG) (LTG core: AA, RTG core: CT) | 0.278

Row | Sequence | recombinant barcode read abundance (log10)
23 | AGGAGGTAGTGGGTTCTAACCTGTTGCCTAG [AGGAGGTCTAG_LTGcore_AG_RTGcore_CT] (site AGGAGGTCTAG) (LTG core: AG, RTG core: CT) | 0.122
24 | AGGAGGTCTTGGGTTCTAACCTGTTGCCTGC [AGGAGGTCTAG_LTGcore_CT_RTGcore_GC] (site AGGAGGTCTAG) (LTG core: CT, RTG core: GC) | 0.814
25 | AGGAGGTCTTGGGTTCTAACCTGTTGCCTGG [AGGAGGTCTAG_LTGcore_CT_RTGcore_CC] (site AGGAGGTCTAG) (LTG core: CT, RTG core: CC) | 0.551
26 | AGGAGGTGATGGGTTCTAACCTGTTGCCTAG [AGGAGGTCTAG_LTGcore_GA_RTGcore_CT] (site AGGAGGTCTAG) (LTG core: GA, RTG core: CT) | 0.417
27 | AGGAGGTTATGGGTTCTAACCTGTTGCCTAG [AGGAGGTCTAG_LTGcore_TA_RTGcore_CT] (site AGGAGGTCTAG) (LTG core: TA, RTG core: CT) | 0.0987
28 | AGGAGGTTTTGGGTTCTAACCTGTTGCCTAG [AGGAGGTCTAG_LTGcore_TT_RTGcore_CT] (site AGGAGGTCTAG) (LTG core: TT, RTG core: CT) | 0.0313
29 | AGGCCTCCATGGGTTCTAACCTGTTGCCTAG [AGGCCTCCTAG_LTGcore_CA_RTGcore_CT] (site AGGCCTCCTAG) (LTG core: CA, RTG core: CT) | 0.44
30 | AGGCCTCCTTGGGTTCTAACCTGTTGCCTAG [AGGCCTCCTAG_LTGcore_CT_RTGcore_CT] (site AGGCCTCCTAG) (LTG core: CT, RTG core: CT) | 1.32
31 | AGGCCTCCTTGGGTTCTAACCTGTTGCCTCG [AGGCCTCCTAG_LTGcore_CT_RTGcore_CG] (site AGGCCTCCTAG) (LTG core: CT, RTG core: CG) | 0.401
32 | AGGCCTCCTTGGGTTCTAACCTGTTGCCTTT [AGGCCTCCTAG_LTGcore_CT_RTGcore_AA] (site AGGCCTCCTAG) (LTG core: CT, RTG core: AA) | 0.116
33 | AGGCCTCGATGGGTTCTAACCTGTTGCCTAG [AGGCCTCCTAG_LTGcore_GA_RTGcore_CT] (site AGGCCTCCTAG) (LTG core: GA, RTG core: CT) | 0.24
34 | AGGCCTCGTTGGGTTCTAACCTGTTGCCTAG [AGGCCTCCTAG_LTGcore_GT_RTGcore_CT] (site AGGCCTCCTAG) (LTG core: GT, RTG core: CT) | 0.148
35 | AGGCCTCTGTGGGTTCTAACCTGTTGCCTAG [AGGCCTCCTAG_LTGcore_TG_RTGcore_CT] (site AGGCCTCCTAG) (LTG core: TG, RTG core: CT) | 0.11
36 | AGGCGGGAGTGGGTTCTAACCTGTTGCGGCT [AGGCGGGCTCC_LTGcore_AG_RTGcore_AG] (site AGGCGGGCTCC) (LTG core: AG, RTG core: AG) | 0.0482
37 | AGGCGGGATTGGGTTCTAACCTGTTGCGGAG [AGGCGGGCTCC_LTGcore_AT_RTGcore_CT] (site AGGCGGGCTCC) (LTG core: AT, RTG core: CT) | 0.447
38 | AGGCGGGATTGGGTTCTAACCTGTTGCGGAT [AGGCGGGCTCC_LTGcore_AT_RTGcore_AT] (site AGGCGGGCTCC) (LTG core: AT, RTG core: AT) | 0.178
39 | AGGCGGGCTTGGGTTCTAACCTGTTGCGGCA [AGGCGGGCTCC_LTGcore_CT_RTGcore_TG] (site AGGCGGGCTCC) (LTG core: CT, RTG core: TG) | 0.0958
40 | AGGCGGGCTTGGGTTCTAACCTGTTGCGGCT [AGGCGGGCTCC_LTGcore_CT_RTGcore_AG] (site AGGCGGGCTCC) (LTG core: CT, RTG core: AG) | 0.172
41 | AGGCGGGCTTGGGTTCTAACCTGTTGCGGTA [AGGCGGGCTCC_LTGcore_CT_RTGcore_TA] (site AGGCGGGCTCC) (LTG core: CT, RTG core: TA) | 0.138
42 | AGGCGGGCTTGGGTTCTAACCTGTTGCGGTG [AGGCGGGCTCC_LTGcore_CT_RTGcore_CA] (site AGGCGGGCTCC) (LTG core: CT, RTG core: CA) | 0.201
43 | AGGCGGGGATGGGTTCTAACCTGTTGCGGAG [AGGCGGGCTCC_LTGcore_GA_RTGcore_CT] (site AGGCGGGCTCC) (LTG core: GA, RTG core: CT) | 0.555
44 | AGGCGGGTCTGGGTTCTAACCTGTTGCGGAG [AGGCGGGCTCC_LTGcore_TC_RTGcore_CT] (site AGGCGGGCTCC) (LTG core: TC, RTG core: CT) | 0.95
